# Laboratory results: US8058242B2, “Chimeric proteins with natriuretic activity” (The University of Queensland, priority 2004, dated 2011)
# Legend:
# [1] = tested on: endothelium-denuded aortic rings (GC-A mediated); test: Aortic ring relaxation, endothelium-denuded rings pre-contracted with 40 mM KCl (Example 3); parameters: species or system rat; conditions: for competitive inhibition of the binding of TNPc: endothelium-denuded aortic rings, TNPa or TNPb followed by TNPc 0.1 μM; for percentage relaxation of the precontraction by KCl: endothelium-denuded rat aortas pre-contracted with 40 mM KCl, peptide 0.1 μM
# Description: (§1) Male Sprague Dawley rats were killed and the descending thoracic aorta rapidly removed and flushed with physiological solution. After being cleared of adhering fat and connective tissue, 5 mm rings were mounted under 10 g resting tension, between two stainless steel hooks, in organ baths (37° C.) containing carbogenated (95% O2 and 5% CO2) physiological salt solution of the following composition (mM): NaCl, 118.4; NaHCO3, 25; glucose, 11; KCl, 4.7; MgSO4, 1.2; KH2PO4, 1.2 and CaCl2, 2.5. The lower hook was attached to a tissue holder and the upper hook to a force displacement transducer (Grass FTO3). Where indicated endothelial cells were removed by gentle rubbing of the intimal surface with a wire. To confirm the presence or absence of endothelial cells, tissues were precontracted with a sub-maximal concentration of phenylephrine (0.3 μM) and the response to acetylcholine (ACh, 10 μM) observed. Ach-induced relaxation greater than 80% of maximum indicated the presence of endothelium; whereas Ach-induced relaxation less than 10% indicated the absence of endothelium. Ring preparations under resting tension were conditioned by two contraction/relaxation cycles with 40 mM KCl, contracted by a third application of 40 mM KCl and then relaxed with different doses of the venom peptides. Responses were expressed as a percentage relaxation of the precontraction by KCl.
# rat GC-A = biological target: T1, rat GC-A (Rattus norvegicus, UniProt P18910); test: Cell cyclic GMP elevations in HEK-293 cells stably expressing rat GC-A (Example 4); format: cell-based; conditions: 0.1 μM; 293 cells over-expressing GC-A
# T1 construct: expressed in transfected cells
# T1 sequence (P18910 29-1057): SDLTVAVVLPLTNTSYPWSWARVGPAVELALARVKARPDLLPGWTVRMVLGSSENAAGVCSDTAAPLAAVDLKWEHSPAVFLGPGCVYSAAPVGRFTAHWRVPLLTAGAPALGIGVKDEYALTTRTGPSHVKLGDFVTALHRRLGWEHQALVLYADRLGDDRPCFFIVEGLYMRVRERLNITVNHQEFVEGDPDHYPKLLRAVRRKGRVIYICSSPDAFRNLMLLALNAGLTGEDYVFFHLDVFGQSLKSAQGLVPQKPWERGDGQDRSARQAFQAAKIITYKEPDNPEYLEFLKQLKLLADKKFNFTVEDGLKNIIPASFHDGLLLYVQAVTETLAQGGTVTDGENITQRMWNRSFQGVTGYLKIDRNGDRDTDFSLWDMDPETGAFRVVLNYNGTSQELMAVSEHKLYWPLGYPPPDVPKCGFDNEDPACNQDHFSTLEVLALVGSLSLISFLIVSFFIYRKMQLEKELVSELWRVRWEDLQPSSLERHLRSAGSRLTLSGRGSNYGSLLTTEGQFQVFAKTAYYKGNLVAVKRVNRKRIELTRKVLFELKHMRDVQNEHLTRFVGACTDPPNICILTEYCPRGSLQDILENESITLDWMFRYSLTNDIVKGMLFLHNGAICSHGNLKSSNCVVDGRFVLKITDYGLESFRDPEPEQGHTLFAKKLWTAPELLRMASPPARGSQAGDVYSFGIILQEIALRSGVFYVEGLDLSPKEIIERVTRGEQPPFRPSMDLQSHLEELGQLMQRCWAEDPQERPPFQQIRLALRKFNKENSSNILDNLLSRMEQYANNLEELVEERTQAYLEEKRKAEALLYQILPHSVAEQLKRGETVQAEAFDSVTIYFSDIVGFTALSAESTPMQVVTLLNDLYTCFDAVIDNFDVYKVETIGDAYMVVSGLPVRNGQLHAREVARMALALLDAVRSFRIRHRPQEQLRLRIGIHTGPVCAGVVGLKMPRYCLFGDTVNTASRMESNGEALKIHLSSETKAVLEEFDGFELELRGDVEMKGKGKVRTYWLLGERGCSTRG
# Excerpt: The human embryonic kidney 293 (HEK-293) cell line was used for the stable expression of rat GC-A (GC-A/293). Cells expressing rat GC-A (GC-A/293) in the HEK-293 cell line were as previously described (Potter L. R., and Garbers D. L., (1992), J Biol Chem. 26, 14531-4) and determination of cGMP elevations was undertaken as previously described (Chrisman et al. T. D., Schulz, S., Potter, L. R. and Garbers, D. L., (1993,) J. Biol. Chem. (1993) 268 (5), 3698-3703). Responses were expressed as a percentage of the effect produced by ANP.
# conscious rabbits = test: Blood pressure and heart rate in conscious rabbits, intravenous infusion dose-response (Example 8); conditions: for Recovery (MAP) / Recovery Delta SED (MAP): after 1 hour recovery period; for Recovery (MAP) / Recovery Delta SED (MAP) / MAP at final dose / Treatment Effect, change of mean blood pressure during the infusion: Table 10A; for MAP at final dose / Treatment Effect, change of mean blood pressure during the infusion: highest dose; for Treatment Effect, change of mean blood pressure during the infusion: groups 1, 2A and 3; for Diastolic BP, mean difference from control / HR, mean difference from control / Mean BP, mean difference from control / Systolic BP, mean difference from control: 45 min
# [2] = tested on: endothelium-intact aortic rings (NPR-C mediated); test: Aortic ring relaxation, endothelium-intact rings pre-contracted with 40 mM KCl (Example 3); parameters: species or system rat; conditions: for competitive inhibition of the binding of TNPc: endothelium-intact aortic rings, TNPa or TNPb followed by TNPc 0.1 μM; for percentage relaxation of the precontraction by KCl: endothelium-intact rat aortas pre-contracted with 40 mM KCl, peptide 0.1 μM
# Description: as §1
# [3] = average of the 3 doses 1.0, 2.0, 4.0 μg/kg/min
Sequence,competitive inhibition of the binding of TNPc [1],percentage relaxation of the precontraction by KCl [1],"cGMP elevations, percentage of the effect produced by ANP (rat GC-A)",Recovery (MAP) (conscious rabbits),Recovery Delta SED (MAP) (conscious rabbits),"Diastolic BP, Average Response SED (conscious rabbits; [3])","Mean BP (MAP), Average Response SED (conscious rabbits; [3])","Systolic BP, Average Response SED (conscious rabbits; [3])",MAP at final dose (conscious rabbits),"Treatment Effect, change of mean blood pressure during the infusion (conscious rabbits)","Diastolic BP, mean difference from control (conscious rabbits; i.v. infusion 1.0 μg/kg/min)","HR, mean difference from control (conscious rabbits; i.v. infusion 1.0 μg/kg/min)","Mean BP, mean difference from control (conscious rabbits; i.v. infusion 1.0 μg/kg/min)","Systolic BP, mean difference from control (conscious rabbits; i.v. infusion 1.0 μg/kg/min)","Diastolic BP, mean difference from control (conscious rabbits; i.v. infusion 2.0 μg/kg/min)","HR, mean difference from control (conscious rabbits; i.v. infusion 2.0 μg/kg/min)","Mean BP, mean difference from control (conscious rabbits; i.v. infusion 2.0 μg/kg/min)","Systolic BP, mean difference from control (conscious rabbits; i.v. infusion 2.0 μg/kg/min)","Diastolic BP, mean difference from control (conscious rabbits; i.v. infusion 4.0 μg/kg/min)","HR, mean difference from control (conscious rabbits; i.v. infusion 4.0 μg/kg/min)",also measured
SDPKIGDGCFGLPLDHIGSVSGLGCNRPVQNRPKK (A portion of a natriuretic peptide) [TNPb],lack the ability to competitively inhibit the binding of TNPc,no relaxation,lesser effects on cGMP elevations,68.2 mm Hg,3.5 ± 2.3 mm Hg,−7.8 ± 0.9 mmHg,−9.6 ± 1.1 mmHg,−8.9 ± 1.4 mmHg,64.7 mm Hg,−11.0 mm Hg,−7.0 mmHg,−3.9 bpm,−8.0 mmHg,−7.9 mmHg,−7.9 mmHg,−5.1 bpm,−9.8 mmHg,−8.8 mmHg,−8.6 mmHg,4.7 bpm,"HR, Average Response SED (conscious rabbits; [3]): −1.4 ± 3.5 bpm; Mean BP, mean difference from control (conscious rabbits; i.v. infusion 4.0 μg/kg/min): −11.0 mmHg; Systolic BP, mean difference from control (conscious rabbits; i.v. infusion 4.0 μg/kg/min): −10.0 mmHg; competitive inhibition of the binding of TNPc [2]: lack the ability to competitively inhibit the binding of TNPc; percentage relaxation of the precontraction by KCl [2]: approximately 20%"
SDSKIGDGCFGLPLDHIGSVSGLGCNRPVQNRPKK (A portion of a natriuretic peptide) [TNPa],lack the ability to competitively inhibit the binding of TNPc,no relaxation,lesser effects on cGMP elevations,65.3 mm Hg,3.0 ± 2.9 mm Hg,−7.9 ± 0.9 mmHg,−8.7 ± 1.1 mmHg,−5.7 ± 1.3 mmHg,62.3 mm Hg,−11.6 mm Hg,−6.0 mmHg,−16.1 bpm,−6.4 mmHg,−2.8 mmHg,−7.7 mmHg,−15.9 bpm,−8.0 mmHg,−4.9 mmHg,−9.9 mmHg,−9.8 bpm,"Mean BP, mean difference from control (conscious rabbits; i.v. infusion 4.0 μg/kg/min): −11.6 mmHg; Systolic BP, mean difference from control (conscious rabbits; i.v. infusion 4.0 μg/kg/min): −9.4 mmHg; competitive inhibition of the binding of TNPc [2]: lack the ability to competitively inhibit the binding of TNPc; percentage relaxation of the precontraction by KCl [2]: approximately 20%"
